The source of these data is patent publication US20180110784A1, “SYNTHETIC TLR4 AND TLR7 LIGANDS TO PREVENT, INHIBIT OR TREAT LIVER DISEASE” (The Regents of the University of California, priority 2015, published 2018).

Read-outs that look alike come from different tables or passages of the source.

Holding throughout (format): cell-based
Assay [1] deals with TLR4 (Homo sapiens, UniProt O00206+Q9Y6Y9). Briefly: TLR4 activity, human.
Assay [2] deals with IL-8. Briefly: IL-8 activity of TLR4 ligands, human. Also noted: unit not given here.
The target in assay [3] is T1, TLR4 (Mus musculus, UniProt Q9JHF9+Q9QUK6).
T1 sequence (Q9QUK6 26-835): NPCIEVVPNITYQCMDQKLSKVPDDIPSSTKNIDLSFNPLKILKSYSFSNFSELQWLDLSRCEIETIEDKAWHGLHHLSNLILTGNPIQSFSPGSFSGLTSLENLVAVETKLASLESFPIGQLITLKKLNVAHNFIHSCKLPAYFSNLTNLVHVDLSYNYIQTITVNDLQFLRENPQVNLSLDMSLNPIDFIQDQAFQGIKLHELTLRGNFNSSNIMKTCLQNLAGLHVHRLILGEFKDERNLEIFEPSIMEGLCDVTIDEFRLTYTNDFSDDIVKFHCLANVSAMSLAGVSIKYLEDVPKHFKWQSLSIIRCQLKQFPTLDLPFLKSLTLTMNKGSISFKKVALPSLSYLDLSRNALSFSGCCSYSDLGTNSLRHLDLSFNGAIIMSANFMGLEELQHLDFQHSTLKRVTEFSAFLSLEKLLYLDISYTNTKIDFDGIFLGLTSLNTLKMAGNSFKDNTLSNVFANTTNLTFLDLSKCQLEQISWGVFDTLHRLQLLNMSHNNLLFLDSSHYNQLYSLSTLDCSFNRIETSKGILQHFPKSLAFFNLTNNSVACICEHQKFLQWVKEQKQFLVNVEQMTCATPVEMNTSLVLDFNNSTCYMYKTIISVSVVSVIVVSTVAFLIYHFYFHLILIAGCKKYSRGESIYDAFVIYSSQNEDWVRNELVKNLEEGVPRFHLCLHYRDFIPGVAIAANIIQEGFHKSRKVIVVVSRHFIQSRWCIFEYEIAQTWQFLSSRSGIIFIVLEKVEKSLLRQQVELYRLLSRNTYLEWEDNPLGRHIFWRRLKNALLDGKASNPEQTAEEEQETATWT
T1 sequence (Q9JHF9 19-160): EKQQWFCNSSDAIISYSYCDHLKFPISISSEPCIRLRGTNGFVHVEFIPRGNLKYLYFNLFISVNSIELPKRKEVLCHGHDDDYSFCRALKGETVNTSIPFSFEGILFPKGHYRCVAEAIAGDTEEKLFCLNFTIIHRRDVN
Briefly: TLR4 activity, mouse.

Assay [4] deals with IP-10. The assay is described as follows: IP-10 activity of TLR4 ligands, mouse.
Assay [5] concerns IL-6. The assay is described as follows: IL-6 activity of TLR4 ligands, mouse. Also noted: unit not given here.
Assay [6] concerns TLR9 signaling. Briefly: CpG-DNA-induced TLR9 signaling-mediated inflammatory response in isolated Kupffer cells. To be noted: R848 0.5 μM for 16 hours, then CpG-DNA 5 μg/mL for 4 hours. The procedure: It was examined whether 1Z1 (FIG. 7) inhibits TLR9 signaling, which promotes liver diseases, including non-alcoholic steatohepatitis (NASH) and alcoholic liver disease (ALD). Isolated Kupffer cells were treated with 1Z1 (5 μM) or R848 (0.5 μM) for 16 hours followed by stimulation with CpG-DNA (TLR9 ligand; 5 μg/mL) for 4 hours and inflammatory cytokine expression was then measured. Pretreatment with […], 1Z1, and R848 inhibited production of IL-6, TNFα, IL-1β, CCL5, CXCL1, and CXCL2 in Kupffer cells following CpG-DNA treatment (FIG. 18).

Sequence of TLR4 (Homo sapiens, UniProt O00206+Q9Y6Y9) (O00206 24-839): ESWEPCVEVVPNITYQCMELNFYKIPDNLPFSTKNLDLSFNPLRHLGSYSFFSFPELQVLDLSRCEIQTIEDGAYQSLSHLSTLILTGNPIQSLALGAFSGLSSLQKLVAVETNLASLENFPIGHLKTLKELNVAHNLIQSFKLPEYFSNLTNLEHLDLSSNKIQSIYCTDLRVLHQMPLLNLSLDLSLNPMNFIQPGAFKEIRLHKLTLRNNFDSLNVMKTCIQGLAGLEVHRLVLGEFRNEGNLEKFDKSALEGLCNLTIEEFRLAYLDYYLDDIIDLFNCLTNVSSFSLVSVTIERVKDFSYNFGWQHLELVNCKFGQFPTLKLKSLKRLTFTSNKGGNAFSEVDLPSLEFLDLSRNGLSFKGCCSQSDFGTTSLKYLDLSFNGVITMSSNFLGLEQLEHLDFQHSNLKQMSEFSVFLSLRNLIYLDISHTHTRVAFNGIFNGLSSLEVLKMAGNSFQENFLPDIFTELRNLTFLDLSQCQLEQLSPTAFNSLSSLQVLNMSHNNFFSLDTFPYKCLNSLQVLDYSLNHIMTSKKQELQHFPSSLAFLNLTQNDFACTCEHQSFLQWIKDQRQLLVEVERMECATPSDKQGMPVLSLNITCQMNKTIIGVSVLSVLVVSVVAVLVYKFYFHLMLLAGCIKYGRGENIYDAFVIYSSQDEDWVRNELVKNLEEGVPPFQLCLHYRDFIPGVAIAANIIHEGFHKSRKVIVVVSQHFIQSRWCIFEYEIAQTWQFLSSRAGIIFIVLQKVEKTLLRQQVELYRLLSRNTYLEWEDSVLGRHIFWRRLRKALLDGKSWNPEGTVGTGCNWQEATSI
Sequence of TLR4 (Homo sapiens, UniProt O00206+Q9Y6Y9) (Q9Y6Y9 17-160 limits assumed): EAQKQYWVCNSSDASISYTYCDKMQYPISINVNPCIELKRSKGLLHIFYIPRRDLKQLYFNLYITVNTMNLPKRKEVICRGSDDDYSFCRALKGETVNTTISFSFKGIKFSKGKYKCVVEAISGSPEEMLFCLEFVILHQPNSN

`O=C(CSc1nc2c([nH]c3ccccc32)c(=O)n1-c1ccccc1)NC1CCNCC1` [Compound 34]: in assay [1] (human), the “human TLR4” value is listed as under 1. The “human IL-8” value in assay [2] came out at 17. Also, the “mouse TLR4” value in assay [3] (mouse) is recorded as under 1. In addition, the “mouse IP-10” value in assay [4] was under 1. Further, the “mouse IL-6” value in assay [5] is under 1.

For `CN(C(=O)CSc1nc2c3ccccc3n(C)c2c(=O)n1-c1ccccc1)C1CCCCC1` [Compound 43], the “human TLR4” value in assay [1] (human) is under 1. For the same molecule, the “human IL-8” value in assay [2] is on record as 5. Also, the “mouse TLR4” value in assay [3] (mouse) stood at 1. In assay [4], the “mouse IP-10” value is given as under 1. In addition, the “mouse IL-6” value in assay [5] is listed as under 1.

As for `COC(=O)CCCn1c2ccccc2c2nc(SCC(=O)NC3CCCCC3)n(-c3ccccc3)c(=O)c21` [Compound 44], the “human TLR4” value in assay [1] (human) is 19. Further, the “human IL-8” value in assay [2] is 124. The “mouse TLR4” value in assay [3] (mouse) is reported as 9. Further, the “mouse IP-10” value in assay [4] is given as 19. Further, in assay [5], the “mouse IL-6” value is listed as 4.

In the case of `CCOCc1nc2c(N)nc3ccccc3c2n1CC(C)(C)O` [Compound R848], in assay [6], the “production of IL-6, TNFα, IL-1β, CCL5, CXCL1, and CXCL2 following CpG-DNA treatment” value is reported as “inhibited”.

Take `CCCCNC(=O)CSc1nc2c([nH]c3ccccc32)c(=O)n1-c1ccccc1` [Compound 23]: in assay [1], the “human TLR4” value came out at 32. In addition, in assay [2], the “human IL-8” value is listed as 29. The “mouse TLR4” value in assay [3] was found to be 31. The “mouse IP-10” value in assay [4] is 61. The “mouse IL-6” value in assay [5] was determined as 49.
